These results are taken from US12415799B2, “Indazole-fused cyclic compound” (Zhejiang Yangli Pharmaceutical Technology Co., Ltd., priority 2020, dated 2025).

In one data set the target is ERα (Homo sapiens (Human), UniProt P03372). The data set can be described thus: Degradation experiment of MCF-7 ERα (ELISA). In kind it is cell-based. The following applies: MCF-7 cell line, 4 hours incubation, total ERα ELISA; read-out: IC50 value of promoting ERα degradation. The text has this: (2) Degradation Experiment of MCF-7 ERα Experimental Materials:
Phenol red-free MEM culture medium was purchased from Wisent, fetal bovine serum was purchased from Biosera, and Human Total ERα/NR3A1 ELISA kit was purchased from R&D. MCF-7 cell line was purchased from Cell Bank of Type Culture Collection of Chinese Academy of Sciences. Nivo5 multi-label analyzer (PerkinElmer).
MCF-7 cells were resuspended in culture medium (phenol red-free MEM+5% charcoal/dextran-treated fetal bovine serum+1% penicillin-streptomycin double antibody solution), and seeded in a clear 96-well cell culture plate with 80 μL per well containing 20,000 cells, and the cell culture plate was incubated overnight in a carbon dioxide incubator;
ELISA plate was coated with strips, human total estrogen receptor a capture antibody was diluted with 1×PBS with a final concentration of 1 μg/mL, and 100 μL of mixture was added to each well, and incubated overnight at 25° C.
Cell administration: The test compound was diluted to the 8th concentration with a multi-channel pipette, and the compound concentration was 20 μM and 4 μM, and then diluted to the 8th concentration of 0.256 nM in turn, and a double-duplicate experiment was set-up. 78 μL of culture medium was added to the middle plate, then 2 μL of gradient dilution compound per well was transferred to the middle plate according to the corresponding position, and 20 μL of the mixture per well was mixed evenly and transferred to the cell plate, and the final concentration of DMSO was 0.5%, and the mixture was incubated at 37° C. for 4 hours;
preparation of standard curve solution: 110 ng/mL of standard curve storage solution was 6-fold diluted with buffer (1×PBS containing 1 mM EDTA, 0.5% Triton X-100, pH 7.2 to 7.4) to obtain a solution with a concentration of 18.3 ng/mL, and then 91.5-fold diluted with buffer (1×PBS containing 1 mM EDTA, 0.5% Triton X-100, 1 M urea, pH 7.2 to 7.4) to obtain a solution with a concentration of 0.2 ng/mL, and 8-point gradient dilution was performed using buffer (1×PBS containing 1 mM EDTA, 0.5% Triton X-100, 1 M urea, pH 7.2 to 7.4) with a final concentration of […].
1×PBS was pre-cooled, and after the incubation of the compound, the supernatant was removed, and then the plate was washed with 250 μL of pre-cooled 1×PBS per well, then 30 µL of cell lysate per well (1×PBS containing 1 mM EDTA, 0.5% Triton X-100, 6 M urea, 1 mM active sodium orthovanadate, 2.5 mM sodium pyrophosphate, lx protease inhibitor, pH 7.2 to 7.4) was added, and lysed on ice for 15 minutes;
after cell was lysed in the cell plate, the cell lysate was 6-fold diluted with 150 μL of buffer (1×PBS containing 1 mM EDTA, 0.5% Triton X-100, pH 7.2 to 7.4) per well, and the mixture was mixed evenly by blowing with a multi-channel pipette, and 100 μL of solution per well was transferred to the ELISA plate;
the human total estrogen receptor a detection antibody stock solution (14.4 μg/mL) was 36-fold diluted with buffer (1×PBS containing 1% bovine serum albumin), and the final concentration of the detection antibody was 400 ng/mL, and 100 μL of the solution per well was transferred to the ELISA plate and incubated at 25° C. for 2 hours;
Data analysis: A, B, C and D in the four-parameter equation y=(A−D)/[1+(x/C)^B]+D were calculated according to the original data of the standard curve, wherein, y was the original OD450 value, x was the concentration of the corresponding point of the standard curve. According to the four-parameter equation and the OD450 reading of the original data of the sample, the concentration of ERα at the corresponding point was calculated. The equation (Sample−Min)/(Max−Min)×100% was used to convert the original data into inhibition rate, and the IC50 value could be obtained by curve fitting with four parameters (obtained by “log (inhibitor) vs. response—variable slope” mode in GraphPad Prism).
Max wells: Positive control wells reading at 100 nM Fulvestrant-treated cell wells […]

Another data set concerns the target CYP3A4 (Homo sapiens (Human), UniProt P08684). The data set is described as follows: Cytochrome P450 isoenzyme inhibition, human liver microsomes. In kind it is in vitro ADME. The protocol:
Experimental purposes: To test the inhibitory effect of test compound on the activity of human liver microsomal cytochrome P450 isoenzymes (CYP1A2 and CYP3A4) (Corning, Co., Ltd.).
Experimental operation: Firstly, the test compound (10 mM) was subjected to gradient dilution to prepare a working solution (100×final concentration), and the concentration of the working solution was: 5, 1.5, 0.5, 0.15, 0.05, 0.015 and 0.005 mM, respectively, and the working solution of each positive inhibitor of P450 isoenzyme (CYP1A2 and CYP3A4) and its specific substrate mixture (5 in 1) were prepared; and then the human liver microsomes frozen in the −80° C. refrigerator were thawed on ice, and all the human liver microsomes were dissolved, diluted with PB, and a certain concentration of working solution (0.253 mg/mL) was prepared; 20 μL of substrate mixture was added to the reaction plate (20 μL of PB was added to the blank well), while 158 μL of human liver microsomal working solution was added to the reaction plate, and the reaction plate was placed on ice for later use; at this time, 2 μL of various concentrations of the test compound (N=1) and specific inhibitor (N=2) were added to the corresponding well, and the corresponding organic solvent was added to the non-inhibitor (test compound or positive inhibitor) group as a control group sample (a ratio of DMSO:MeOH in the test compound control sample was 1:1, a ratio of DMSO:MeOH in the positive control sample was 1:9); after pre-incubation in a water bath at 37° C. for 10 min, 20 μL of coenzyme factor (NADPH) solution was added to the reaction plate, and incubated in a water bath at 37° C. for 10 min; and 400 μL of cold acetonitrile solution (internal standard was 200 ng/mL tolbutamide and labetalol) was added to terminate the reaction; the reaction plate was placed on a shaker and shaked for 10 minutes; and then centrifuged at 4,000 rpm for 20 minutes; 200 μL of the supernatant was taken and added to 100 μL of water for sample dilution; finally the plate was sealed, shaked and shaked well, for LC/MS/MS detection.

CYP3A4, sequence (P08684 whole entry): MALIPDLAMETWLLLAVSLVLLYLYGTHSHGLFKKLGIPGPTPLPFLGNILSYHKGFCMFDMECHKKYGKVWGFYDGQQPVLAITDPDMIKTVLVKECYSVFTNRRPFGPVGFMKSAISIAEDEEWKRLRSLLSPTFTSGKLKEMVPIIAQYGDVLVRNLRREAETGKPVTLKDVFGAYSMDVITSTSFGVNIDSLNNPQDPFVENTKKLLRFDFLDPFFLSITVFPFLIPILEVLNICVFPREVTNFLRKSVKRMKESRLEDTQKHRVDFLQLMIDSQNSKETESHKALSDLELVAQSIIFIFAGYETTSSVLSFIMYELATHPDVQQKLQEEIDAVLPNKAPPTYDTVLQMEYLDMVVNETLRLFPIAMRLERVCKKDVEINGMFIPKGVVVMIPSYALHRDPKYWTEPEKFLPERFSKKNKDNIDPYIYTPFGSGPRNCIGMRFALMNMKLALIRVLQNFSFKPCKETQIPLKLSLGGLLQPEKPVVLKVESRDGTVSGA
ERα, sequence (P03372 whole entry): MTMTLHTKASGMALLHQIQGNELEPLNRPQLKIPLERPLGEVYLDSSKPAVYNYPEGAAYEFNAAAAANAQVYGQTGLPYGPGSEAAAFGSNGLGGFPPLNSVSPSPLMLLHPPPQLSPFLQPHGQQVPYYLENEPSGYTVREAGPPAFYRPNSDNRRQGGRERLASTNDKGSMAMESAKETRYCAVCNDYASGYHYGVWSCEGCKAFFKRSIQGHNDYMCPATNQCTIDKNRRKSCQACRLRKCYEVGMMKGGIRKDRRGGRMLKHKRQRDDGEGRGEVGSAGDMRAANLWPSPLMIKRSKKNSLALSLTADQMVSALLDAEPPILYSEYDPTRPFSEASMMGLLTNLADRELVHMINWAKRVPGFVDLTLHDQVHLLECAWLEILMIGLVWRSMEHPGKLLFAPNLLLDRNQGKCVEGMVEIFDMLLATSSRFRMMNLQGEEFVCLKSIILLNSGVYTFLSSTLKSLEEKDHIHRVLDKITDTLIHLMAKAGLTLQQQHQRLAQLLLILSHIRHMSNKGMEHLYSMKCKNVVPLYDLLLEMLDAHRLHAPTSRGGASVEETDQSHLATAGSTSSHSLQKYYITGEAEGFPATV

Usually IC50 stands for the concentration needed to halve the response being measured. With `FCCCN1CC[C@H](Nc2cnc(C3=C(CC(F)(F)F)CCCc4c3ccc3[nH]nc(F)c43)cn2)C1` [Compound 11A], the IC50 on ERα came out at 0.00023 µM; on CYP3A4, 25.7 µM.
Consider `FCCCN1CC(Nc2ccc(C3=C(CC(F)(F)F)CCCc4c3ccc3[nH]nc(F)c43)nc2)C1` [Compound 2], for which, at ERα, the DC50 is 0.0002 µM. The same compound showed an IC50 against CYP3A4 of 47.2 µM.
